According to ChEMBL document CHEMBL1201862, “PubChem BioAssay data set” (2004):
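Growth conditions: 96-well plates. Treatment: test compound, 48 hours, 5 concentrations. Analysis: linear interpolation between bracketing concentrations; unreached endpoints set to highest concentration. GI50 is the concentration that inhibits growth by half.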 Activity calls are given as the source filed them. Rule as the data show it: active = GI50 up to about 1.1 µM and inactive = higher.

Key:
Test in all cases: NCI-60 cell line screen, 48 h
SR = test system: SR
Malme-3M = test system: Malme-3M
IGROV-1 = test system: IGROV-1
786-0 = test system: 786-0
CCRF-CEM = test system: CCRF-CEM
OVCAR-5 = test system: OVCAR-5
EKVX = test system: EKVX
M14 = test system: M14
T47D = test system: T47D
HOP-92 = test system: HOP-92
SN12C = test system: SN12C
A498 = test system: A498
SK-OV-3 = test system: SK-OV-3
NCI-H226 = test system: NCI-H226
SK-MEL-5 = test system: SK-MEL-5
NCI-H460 = test system: NCI-H460
NCI-H23 = test system: NCI-H23
SW-620 = test system: SW-620
ACHN = test system: ACHN
UACC-62 = test system: UACC-62

Row | Structure (SMILES) | GI50 (SR) | GI50 (Malme-3M) | GI50 (IGROV-1) | GI50 (786-0) | GI50 (CCRF-CEM) | GI50 (OVCAR-5) | GI50 (EKVX) | GI50 (M14) | GI50 (T47D) | GI50 (HOP-92) | GI50 (SN12C) | GI50 (A498) | GI50 (SK-OV-3) | GI50 (NCI-H226) | GI50 (SK-MEL-5) | GI50 (NCI-H460) | GI50 (NCI-H23) | GI50 (SW-620) | GI50 (ACHN) | GI50 (UACC-62)
1 | CNC(=O)N(C)C(=O)c1ccccc1C(=O)N(C)C(=O)NC | > 10 µM (inactive) | > 10 µM (inactive) | > 10 µM (inactive) | > 10 µM (inactive) | > 10 µM (inactive) | > 10 µM (inactive) | > 10 µM (inactive) | > 10 µM (inactive) | > 10 µM (inactive) | > 10 µM (inactive) | > 10 µM (inactive) | > 10 µM (inactive) | > 10 µM (inactive) | > 10 µM (inactive) | > 10 µM (inactive) | > 10 µM (inactive) | > 10 µM (inactive) | > 10 µM (inactive) | > 10 µM (inactive) | > 10 µM (inactive)
2 | Clc1sc(Cl)c2c1[C@@H](Cl)C[C@@H]2Cl | 33.6 µM (inactive) | 29.7 µM (inactive) | 48.1 µM (inactive) | > 100 µM (inactive) | 23.7 µM (inactive) | > 100 µM (inactive) | 62.5 µM (inactive) | > 100 µM (inactive) | 45.4 µM (inactive) | 37.4 µM (inactive) | > 100 µM (inactive) | > 100 µM (inactive) | > 100 µM (inactive) | 57.3 µM (inactive) | > 100 µM (inactive) | 92.9 µM (inactive) | 53.8 µM (inactive) | 57.1 µM (inactive) | > 100 µM (inactive) | 13.4 µM (inactive)
3 | C=CC1CCC[N+]1(CC(=O)OCC)Cc1ccccc1 (stereo not given) | > 100 µM (inactive) | > 100 µM (inactive) | > 100 µM (inactive) | > 100 µM (inactive) | > 100 µM (inactive) | > 100 µM (inactive) | > 100 µM (inactive) | > 100 µM (inactive) | > 100 µM (inactive) | > 100 µM (inactive) | > 100 µM (inactive) | > 100 µM (inactive) | > 100 µM (inactive) | > 100 µM (inactive) | > 100 µM (inactive) | > 100 µM (inactive) | > 100 µM (inactive) | > 100 µM (inactive) | > 100 µM (inactive) | > 100 µM (inactive)
4 | COc1ccc(CC2C3=C(CCN2C(=O)C2CCC2)CC2(CC3)OCCO2)cc1O (stereo not given) | 10.5 µM (inactive) | 27.9 µM (inactive) | 35.1 µM (inactive) | 35.2 µM (inactive) | 35.2 µM (inactive) | > 100 µM (inactive) | 38.8 µM (inactive) | 21 µM (inactive) | 44.8 µM (inactive) | 62.8 µM (inactive) | 29.6 µM (inactive) | 26.7 µM (inactive) | 30.5 µM (inactive) | 34.8 µM (inactive) | 30.3 µM (inactive) | 27.7 µM (inactive) | 19.2 µM (inactive) | 31.3 µM (inactive) | 84.1 µM (inactive) | 46.1 µM (inactive)
5 | Clc1ccc2c(NCCCCCCNc3ccnc4cc(Cl)ccc34)ccnc2c1 | 1.59 µM (inactive) | 12.8 µM (inactive) | 4.8 µM (inactive) | 1.97 µM (inactive) | 2.34 µM (inactive) | 7.05 µM (inactive) | 6.97 µM (inactive) | 1.88 µM (inactive) | 2.08 µM (inactive) | 2 µM (inactive) | 2.74 µM (inactive) | 11.2 µM (inactive) | 5.22 µM (inactive) | 10.4 µM (inactive) | 3.34 µM (inactive) | 2.25 µM (inactive) | 12.3 µM (inactive) | 1.63 µM (inactive) | 3.67 µM (inactive) | 3.86 µM (inactive)
6 | O=[N+]([O-])/C=C/c1cc(Cl)c(/C=C/[N+](=O)[O-])cc1Cl | 0.225 µM (active) | 1.91 µM (inactive) | 3.29 µM (inactive) | 1.16 µM (inactive) | 0.8 µM (active) | 1.52 µM (inactive) | 1.91 µM (inactive) | 1.87 µM (inactive) | 2.03 µM (inactive) | 2.55 µM (inactive) | 1.8 µM (inactive) | 5.89 µM (inactive) | 35.6 µM (inactive) | 2.06 µM (inactive) | 3.53 µM (inactive) | 19.4 µM (inactive) | 2.61 µM (inactive) | 1.03 µM (active) | 1.57 µM (inactive) | 1.91 µM (inactive)
7 | C/C(=N/NC(=S)Nc1ccc(Cl)cc1)c1cccc(/C(C)=N\NC(=S)Nc2ccc(Cl)cc2)n1 | 1.19 µM (inactive) | 2.59 µM (inactive) | 1.74 µM (inactive) | 0.594 µM (active) | 1.68 µM (inactive) | 20 µM (inactive) | 5.45 µM (inactive) | 1.79 µM (inactive) | 30.7 µM (inactive) | 3.17 µM (inactive) | 10.7 µM (inactive) | 20.4 µM (inactive) | 7.6 µM (inactive) | 3.54 µM (inactive) | 1.86 µM (inactive) | 3.49 µM (inactive) | 13.2 µM (inactive) | 4.12 µM (inactive) | 2.54 µM (inactive) | 3.48 µM (inactive)
8 | c1ccc([P+](Cc2ccc(C[P+](c3ccccc3)(c3ccccc3)c3ccccc3)s2)(c2ccccc2)c2ccccc2)cc1 | > 100 µM (inactive) | > 100 µM (inactive) | > 100 µM (inactive) | > 100 µM (inactive) | > 100 µM (inactive) | > 100 µM (inactive) | > 100 µM (inactive) | > 100 µM (inactive) | > 100 µM (inactive) | > 100 µM (inactive) | > 100 µM (inactive) | > 100 µM (inactive) | > 100 µM (inactive) | > 100 µM (inactive) | > 100 µM (inactive) | > 100 µM (inactive) | > 100 µM (inactive) | > 100 µM (inactive) | > 100 µM (inactive) | > 100 µM (inactive)
9 | CCC1(O)C(=O)OCc2c1cc1n(c2=O)Cc2cc3cc4c(cc3nc2-1)OCO4 (stereo not given) | < 0.215 µM (active) | 0.0164 µM (active) | 0.0276 µM (active) | < 0.01 µM (active) | < 0.01 µM (active) | 0.0327 µM (active) | 0.0776 µM (active) | < 0.01 µM (active) | < 0.01 µM (active) | 0.0191 µM (active) | < 0.01 µM (active) | < 0.0103 µM (active) | 0.0102 µM (active) | < 0.01 µM (active) | < 0.01 µM (active) | < 0.01 µM (active) | < 0.01 µM (active) | < 0.0115 µM (active) | < 0.01 µM (active) | < 0.01 µM (active)
10 | NCCOc1ccccn1 | > 100 µM (inactive) | > 100 µM (inactive) | > 100 µM (inactive) | > 100 µM (inactive) | > 100 µM (inactive) | > 100 µM (inactive) | > 100 µM (inactive) | > 100 µM (inactive) | > 100 µM (inactive) | > 100 µM (inactive) | > 100 µM (inactive) | > 100 µM (inactive) | > 100 µM (inactive) | > 100 µM (inactive) | > 100 µM (inactive) | > 100 µM (inactive) | > 100 µM (inactive) | > 100 µM (inactive) | > 100 µM (inactive) | > 100 µM (inactive)
11 | CCCCCCCCC(=O)NCCN(CCN)C(=O)CCCCCCCC | 2.69 µM (inactive) | 17.9 µM (inactive) | 7.46 µM (inactive) | 4.9 µM (inactive) | 2.38 µM (inactive) | 15.8 µM (inactive) | 18.2 µM (inactive) | 8.81 µM (inactive) | 14.9 µM (inactive) | 14 µM (inactive) | 10.8 µM (inactive) | 21.9 µM (inactive) | 15.5 µM (inactive) | 18.5 µM (inactive) | 10.3 µM (inactive) | 5.86 µM (inactive) | 17.3 µM (inactive) | 2.34 µM (inactive) | 8.67 µM (inactive) | 10.7 µM (inactive)
12 | CCOC1OCCCC1Br (stereo not given) | > 100 µM (inactive) | > 100 µM (inactive) | > 100 µM (inactive) | > 100 µM (inactive) | > 100 µM (inactive) | > 100 µM (inactive) | > 100 µM (inactive) | > 100 µM (inactive) | > 100 µM (inactive) | > 100 µM (inactive) | > 100 µM (inactive) | > 100 µM (inactive) | > 100 µM (inactive) | > 100 µM (inactive) | > 100 µM (inactive) | > 100 µM (inactive) | > 100 µM (inactive) | > 100 µM (inactive) | > 100 µM (inactive) | 72.1 µM (inactive)
13 | CC(=O)OCC1OC(OCCCOP(=S)(OCCC#N)OCC2OC(n3ccc(N)nc3=O)C(OC(=O)c3ccccc3)C2OC(=O)c2ccccc2)C(OC(C)=O)C(OC(C)=O)C1OC(C)=O (stereo not given) | > 100 µM (inactive) | > 100 µM (inactive) | > 100 µM (inactive) | > 100 µM (inactive) | > 100 µM (inactive) | > 100 µM (inactive) | > 100 µM (inactive) | > 100 µM (inactive) | > 100 µM (inactive) | > 100 µM (inactive) | > 100 µM (inactive) | > 100 µM (inactive) | > 100 µM (inactive) | > 100 µM (inactive) | > 100 µM (inactive) | > 100 µM (inactive) | > 100 µM (inactive) | > 100 µM (inactive) | > 100 µM (inactive) | > 100 µM (inactive)
14 | CC1(C)N=c2[nH]cnc2=C(C(N)=O)N1 | > 100 µM (inactive) | > 100 µM (inactive) | > 100 µM (inactive) | > 100 µM (inactive) | > 100 µM (inactive) | > 100 µM (inactive) | > 100 µM (inactive) | > 100 µM (inactive) | > 100 µM (inactive) | > 100 µM (inactive) | > 100 µM (inactive) | > 100 µM (inactive) | > 100 µM (inactive) | > 100 µM (inactive) | > 100 µM (inactive) | > 100 µM (inactive) | > 100 µM (inactive) | > 100 µM (inactive) | > 100 µM (inactive) | > 100 µM (inactive)
